Measurements published in ChEMBL document CHEMBL5360657, “Discovery of the TLR7/8 Antagonist MHV370 for Treatment of Systemic Autoimmune Diseases” (ACS Med Chem Lett, 2023).

Columns and labels:
[1] = molecular target: Toll-like receptor 7 (Mus musculus) (UniProt P58681); experiment: In vivo antagonist activity against TLR7 in mouse assessed as suppression of IFN alpha level at 3 mg/kg, po measured at 3 hrs by LC-MS/MS analysis
Toll-like receptor 7 = molecular target: T1, Toll-like receptor 7 (Mus musculus, UniProt P58681); experiment: Antagonist activity at TLR7 in mouse Whole blood cell assessed as reduction in IFN-alpha level measured after 20 hrs by AlphaLISA method; format: tissue-based
T1 sequence (P58681 whole entry): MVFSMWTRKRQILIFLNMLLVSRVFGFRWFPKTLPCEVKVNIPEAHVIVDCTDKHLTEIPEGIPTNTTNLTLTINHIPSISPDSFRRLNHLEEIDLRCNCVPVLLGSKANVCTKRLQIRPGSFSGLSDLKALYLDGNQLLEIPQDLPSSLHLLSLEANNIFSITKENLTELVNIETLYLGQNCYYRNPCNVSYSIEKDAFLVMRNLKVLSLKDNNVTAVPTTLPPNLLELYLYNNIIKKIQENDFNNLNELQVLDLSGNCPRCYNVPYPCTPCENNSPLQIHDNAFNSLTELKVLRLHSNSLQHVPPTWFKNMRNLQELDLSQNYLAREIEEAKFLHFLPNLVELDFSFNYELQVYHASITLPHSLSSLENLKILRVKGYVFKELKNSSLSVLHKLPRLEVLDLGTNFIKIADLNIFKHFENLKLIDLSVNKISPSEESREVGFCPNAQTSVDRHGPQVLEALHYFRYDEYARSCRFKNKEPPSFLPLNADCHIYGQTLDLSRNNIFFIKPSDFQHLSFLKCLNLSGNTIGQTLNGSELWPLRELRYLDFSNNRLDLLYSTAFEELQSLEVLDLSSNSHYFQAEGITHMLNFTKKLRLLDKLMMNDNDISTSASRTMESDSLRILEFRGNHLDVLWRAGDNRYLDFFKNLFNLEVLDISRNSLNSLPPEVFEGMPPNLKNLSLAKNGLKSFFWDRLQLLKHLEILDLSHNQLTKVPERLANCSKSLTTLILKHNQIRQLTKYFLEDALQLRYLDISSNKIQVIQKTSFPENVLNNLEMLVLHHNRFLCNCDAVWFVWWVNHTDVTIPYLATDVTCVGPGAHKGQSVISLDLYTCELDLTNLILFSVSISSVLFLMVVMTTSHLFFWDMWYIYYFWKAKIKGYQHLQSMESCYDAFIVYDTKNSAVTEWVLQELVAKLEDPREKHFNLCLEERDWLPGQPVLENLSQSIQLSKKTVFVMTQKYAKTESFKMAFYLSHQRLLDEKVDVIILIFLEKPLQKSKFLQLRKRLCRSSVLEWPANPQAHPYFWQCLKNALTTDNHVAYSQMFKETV

Cc1cc(N2CCc3c(c(C)nn3CC34CCC(NC(=O)[C@@H]5COCCN5)(CC3)CC4)C2)c2cnn(C)c2n1 [MHV-370]
Activity [1]: 141 ng/mL | IC50 (Toll-like receptor 7): 51 nM
